“And” between values parts separate entries of the source, which are not always exact repeats. Equal entries are not always repeated. Structures can show the parent of a compound that is named as a salt. Where two headings read alike, the source gives them in different places.
How the values were obtained:
[1] = system: CYP; test: In vitro CYP inhibition (human liver microsomes) and induction (human hepatocytes) studies; type: in vitro ADME; conditions: induction in human hepatocytes
[2] = in vivo
Protocol: (§1) Patients were enrolled in a dose-escalation stage with enrollment in an expansion stage to follow. During the single-agent dose escalation, cohorts were evaluated at escalating dose levels to determine the MTD or maximum administered dose (MAD).
(§2) Continuous once daily dosing was commenced during the treatment period starting on Cycle 1 Day 1.

[3] = system: locally advanced or metastatic ER-positive breast cancer; conditions: for Response / Response, per cent in parentheses: one line per patient
Protocol: as §1
Patients were monitored for adverse events during a dose-limiting toxicity (DLT) assessment window, defined as Days −7 to 28 of Cycle 1 (single-agent cohorts). For DLT evaluation, toxicity was graded according to the National Cancer Institute Common Terminology Criteria for Adverse Events, Version 4.0 (NCI CTCAE v4.0).
Patients enrolled in the single-agent Compound B dose-escalation stage, which consists of a screening period, a PK lead-in period, a treatment period, and a safety follow-up period. Continuous once daily dosing was commenced during the treatment period starting on Cycle 1 Day 1. […] The dose will be increased by up to 200% of the preceding dose level for each successive cohort, until a safety finding of concern (i.e., either a DLT, any patient with Grade ≥2 clinically significant toxicity or overall adverse event profile inappropriate for 200% increments) is observed. Once safety findings of concern are observed, dose escalation will not exceed 100% increments.

[4] = system: ER-positive breast cancer cell lines; test: Proliferation of ER-positive breast cancer cell lines in vitro; type: cell-based; conditions: multiple ER-positive breast cancer cell lines, including cells engineered to express clinically relevant ER mutations
[5] = clinical; conditions: human, in vivo, po
Protocol: as §1, §2

SMILES: C[C@@H]1Cc2c([nH]c3ccccc23)[C@@H](c2c(F)cc(NC3CN(CCCF)C3)cc2F)N1CC(F)(F)CO [Compound B, 3-((1R,3R)-1-(2,6-difluoro-4-((1-(3-fluoropropyl)azetidin-3-yl)amino)phenyl)-3-methyl-1,3,4,9-tetrahydro-2H-pyrido[3,4-b]indol-2-yl)-2,2-difluoropropan-1-ol tartrate]
- Potential for drug-drug interactions [1]: low-to-moderate
- Plasma exposure vs dose [2]: increased proportionally
- Steady state exposure vs dose [2]: higher than dose proportional
- Response of individual patient (CT, FES-PET) ([3]; 10 mg, after 3 cycles): showed response
- FES-PET response ([3]; all treated patients with FES-PET, qualitative): near-complete (NC) or complete responses (CR)
- Response ([3]; cohort 1 (10 mg), tartrate): uPR
- Response, per cent in parentheses ([3]; cohort 1 (10 mg), tartrate): −40% and −27%
- Response ([3]; cohort 1-BF (10 mg)): cPD
- Response, per cent in parentheses ([3]; cohort 2 (30 mg)): −9%
- DLTs, SAEs, AESIs, clinically significant laboratory abnormalities ([3]; in vivo): no observed
- Inhibition of proliferation [4]: potently inhibits
- half-life [5]: ~40 h

— US11780834B2, “Solid forms of 3-((1R,3R)-1-(2,6-difluoro-4-((1-(3-fluoropropyl)azetidin-3-yl)amino)phenyl)-3-methyl-1,3,4,9-tetrahydro-2H-pyrido[3,4-b]indol-2-yl)-2,2-difluoropropan-1-ol and processes for preparing fused tricyclic compounds comprising a substituted phenyl or pyridinyl moiety, including methods …” (Hoffmann-La Roche Inc., priority 2018, dated 2023)
